Format in all cases: functional, cell-based
Assay [1] deals with HCT-15. The assay is described as follows: In vitro cytotoxic activity against human colon cancer cell line HCT15 after 72 hr of drug exposure determined by the SRB assay. The settings on record: HCT-15, 72 h.
In assay [2] the test system is SK-OV-3. Nature of the assay: In vitro cytotoxic activity against human ovarian carcinoma cell line SK-OV-3 after 72 hr of drug exposure determined by the SRB assay. The settings on record: SK-OV-3, 72 h.
The subject of assay [3] is T47D. Nature of the assay: In vitro cytotoxic activity against human breast cancer cell line T-47D after 72 hr of drug exposure determined by the SRB assay.
In assay [4] the test system is MDA-MB-468. The assay is described as follows: In vitro cytotoxic activity against human breast cancer cell line MD-MB-468 after 72 hr of drug exposure determined by the SRB assay. The settings on record: MDA-MB-468, 72 h.

Consider `Cc1ccc2c(c1)C(=O)c1nccnc1C2=O`, for which the IC50 in assay [1] was 120 nM; in assay [2] it was 2200 nM; in assay [3] it was 1200 nM; in assay [4] it was 1500 nM.

For `O=C1c2ccc(CBr)cc2C(=O)c2nccnc21`, the half-maximal inhibitory concentration (IC50) in assay [1] came out at 400 nM; in assay [2] it was 1600 nM; in assay [3], 500 nM; in assay [4], 300 nM.

Turning to `CN(C)Cc1ccc2c(c1)C(=O)c1nccnc1C2=O`, the 50% inhibitory concentration (IC50) in assay [1] turned out to be 100 nM; in assay [2], 220 nM; in assay [3], 100 nM; in assay [4] it was 100 nM.

With `O=C1c2ccc(CN3CCCC3)cc2C(=O)c2nccnc21`, the half-maximal inhibitory concentration (IC50) in assay [1] amounted to 100 nM; in assay [2], 250 nM; in assay [3] it was 100 nM; in assay [4], 100 nM.

Regarding `O=C1c2ccc(CN3CCOCC3)cc2C(=O)c2nccnc21`, the IC50 worked out at 1300 nM in assay [1], 7000 nM in assay [2], 1300 nM in assay [3] and 3200 nM in assay [4].

For `O=C1c2ccc(CN3CCCCC3)cc2C(=O)c2nccnc21`, the IC50 came out at 50 nM in assay [1], 400 nM in assay [2], 80 nM in assay [3] and 200 nM in assay [4].

As for `CN1CCN(Cc2ccc3c(c2)C(=O)c2nccnc2C3=O)CC1`, the IC50 was determined as 1200 nM in assay [1], 10000 nM in assay [2], 3000 nM in assay [3] and 3000 nM in assay [4].

With `O=C1c2ccc(CN(CCO)CCO)cc2C(=O)c2nccnc21`, the IC50 in assay [1] was determined as 180 nM; in assay [2], 1200 nM; in assay [3], 900 nM; in assay [4], 900 nM.

For the compound `COc1cccc2c1C(=O)c1c(O)c3c(c(O)c1C2=O)C[C@@](O)(C(=O)CO)C[C@@H]3O[C@H]1C[C@H](N)[C@H](O)[C@H](C)O1` [DOXORUBICIN], the figures for the IC50 in assay [1], in assay [3] and in assay [4] were 25 nM, 7 nM and 7 nM, respectively.

As to `CO[C@@]12[C@H](COC(N)=O)C3=C(C(=O)C(C)=C(N)C3=O)N1C[C@@H]1N[C@@H]12` [MITOMYCIN], the IC50 was found to be 70 nM in assay [1], 180 nM in assay [2], 400 nM in assay [3] and 270 nM in assay [4].

Source of the values: ChEMBL document CHEMBL1137951, “Synthesis and in vitro evaluation of 7-dialkylaminomethylbenzo[g]quinoxaline-5,10-diones” (Bioorg Med Chem Lett, 2004).
